In patent US20210008070A1, “TARGETING MINIMAL RESIDUAL DISEASE IN CANCER WITH CD36 ANTAGONISTS” (VIB VZW, priority 2018, published 2021):

Assays:
[1] = tested on: MM52 cells; assay: Colony assay / Cell Titer Glo in short-term melanoma culture MM52; format: cell-based, human
Procedure: D) Colony assay performed over 7 days.
E) and Cell Titer Glo assay performed after 6 days after incubation of the short culture melanoma line MM052 with MEK inhibitor trametinib (TRA; […]; 1 uM), FAK inhibitor PF-562271 (1 uM) and RXRG antagonist HX531 (2 uM)
Cells were grown to near confluency on 12well plates and treated with the indicated drug combinations for the indicated time period. Cells were washed once with PBS, stained with crystal violet (1% crystal violet w/v, 35% methanol v/v) for 15 min, washed with PBS and destained in tap water.
1.15. Cell Titer Glo 2500 cells were plated onto a 96 well plate and treated with the indicated drug combinations for the indicated time period. Cell Titer Glo assay was performed according to the manufacturer's instruction (Promega) and luminescence was measured on a VictorX3 (Perkin Elmer).

[2] = tested on: GFRA2-positive MEL006 cells; assay: FACS of GFRA2-positive cells in MEL006 cultures
Procedure: Cells were resuspended in FACS sorting buffer (culture medium supplied with 1% EDTA 100 mM).

[3] = tested on: RAR receptors; settings: cited from earlier work

In the case of `C=C(c1ccc(C(=O)O)cc1)c1cc2c(cc1C)C(C)(C)CCC2(C)C` [bexarotene], the long-term growth inhibition ([1]; alone) is reported as “did not induce measurable long-term growth inhibition”, the “sensitivity to a combination of trametinib/FAK-inhibitors” value ([1]; bexarotene added) is reported as “increased the sensitivity” and the “sensitivity of MM52 cells to trametinib” value ([1]; bexarotene at concentrations as low as 10 nM) is reported as “significantly decreased the sensitivity”. For the same compound, the “cells with cell death” value ([1]; bexarotene with trametinib/FAK-inhibitors, after 3 days of treatment) was roughly 100%.
In the case of `CN1c2ccc([N+](=O)[O-])cc2N=C(c2ccc(C(=O)O)cc2)c2cc3c(cc21)C(C)(C)CCC3(C)C` [HX531], the “sensitivity of MM52 cells to trametinib” value ([1]; HX531 plus trametinib) is reported as “sensitized these cells to trametinib” and the “drug-dependent induction of GFRA2-positive cells” value ([2]; with IC50 concentrations of BRAF and MEK-inhibitors) is reported as “completely inhibited emergence”.
In the case of `CN(c1ncccc1CNc1nc(Nc2ccc3c(c2)CC(=O)N3)ncc1C(F)(F)F)S(C)(=O)=O` [PF-562271], the “drug-dependent emergence of the GFRA2-high cell population” value ([2]; added to DT) is reported as “diminished the drug-dependent emergence of the GFRA2-high cell population in a dose-dependent manner”.
For `CC1(C)CCC(C)(C)c2cc(C3(c4ccc(C(=O)O)cc4)OCCO3)ccc21` [SR 11237], the RAR activity [3] is given as “devoid of any RAR activity”.
